The values below come from patent publication US20250368649A1, “TETRAHYDROPYRIDOPYRIMIDINE PAN-KRAS INHIBITORS” (Mirati Therapeutics, Inc., priority 2022, published 2025).

One test deals with KRas WT (Homo sapiens, UniProt P01116). The test is described as follows: KRas binding assay (TR-FRET displacement), KRas WT. The settings on record: TR-FRET displacement. Background: Time-resolved FRET reads energy transfer from a long-lived donor to a nearby acceptor.
A further test has as its target KRas G12C (Homo sapiens, UniProt P01116, G12C). The test is classed as binding. The conditions noted are these: TR-FRET displacement, read-out: Binding to KRas (IC50 nM) G12C.
A further test deals with KRas G12S (Homo sapiens, UniProt P01116, G12S). In kind it is binding. The conditions noted are these: TR-FRET displacement, read-out: Binding to KRas (IC50 nM) G12S.
In another test the test system is MKN1 cells. The test is described as follows: Inhibition of KRas-mediated phosphorylation of ERK (Cisbio HTRF pERK), MKN1 cells. The test is classed as cell-based. The conditions noted are these: Homo sapiens. The procedure, abridged: (§1)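 Phospho-ERK signal measured by HTRF after cells had been plated at 6,000/well in RPMI supplemented with 10% FBS on day 1.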
A further test has as its system PSN1 cells. Description: Inhibition of KRas-mediated phosphorylation of ERK (Cisbio HTRF pERK), PSN1 cells. The test is classed as cell-based. The conditions noted are these: Homo sapiens, PSN1, 3 h. The procedure, abridged: as §1
Another test relates to ASPC1 cells. Description: Inhibition of KRas-mediated phosphorylation of ERK (Cisbio HTRF pERK), ASPC1 cells. The test is classed as cell-based. The conditions noted are these: Homo sapiens, ASPC1, 3 h, AsPC-1 cells, 3 hr compound incubation.
Another test concerns H727 cells. The test is described as follows: Inhibition of KRas-mediated phosphorylation of ERK (Cisbio HTRF pERK), H727 cells. The test is classed as cell-based. The conditions noted are these: Homo sapiens, NCI-H727, 3 h, 3 hr compound incubation.
A further test concerns A549 cells. Description: Inhibition of KRas-mediated phosphorylation of ERK (Cisbio HTRF pERK), A549 cells. In kind it is cell-based. The conditions noted are these: Homo sapiens, A549, 3 h, 3 hr compound incubation.
In another test the test system is H460 cells. The test is described as follows: Inhibition of KRas-mediated phosphorylation of ERK (Cisbio HTRF pERK), H460 cells. The conditions noted are these: Homo sapiens, NCI-H460, 3 h, 3 hr compound incubation. In kind it is cell-based.
For another test, the system named is HCT116 cells. The test is described as follows: Inhibition of KRas-mediated phosphorylation of ERK (Cisbio HTRF pERK), HCT116 cells. In kind it is cell-based. The settings on record: Homo sapiens, HCT-116, 3 h, 3 hr compound incubation.
In a further test the test system is H358 cells. The test is described as follows: Inhibition of KRas-mediated phosphorylation of ERK (Cisbio HTRF pERK), H358 cells. The test is classed as cell-based. The conditions noted are these: Homo sapiens, NCI-H358, 3 h, 3 hr compound incubation.
For another test, the target named is KRas G12D (Homo sapiens, UniProt P01116, G12D). The test is described as follows: biochemical. The settings on record: Binding to KRas (IC50 nM) G12D, TR-FRET displacement, KRas G12D.
Another test deals with KRas G12V (Homo sapiens, UniProt P01116, G12V). Description: biochemical. The settings on record: Binding to KRas (IC50 nM) G12V, TR-FRET displacement, KRas G12V.
Another test has as its target KRas G12R (Homo sapiens, UniProt P01116, G12R). The test is described as follows: biochemical. The conditions noted are these: Binding to KRas (IC50 nM) G12R, TR-FRET displacement, KRas G12R.
Where [1] appears, read: MKN-1, 3 hr compound incubation.
The mark [2] stands for this setting: MKN-1, 3 hour compound incubation, Cisbio pERK HTRF.
Setting [3] is: 3 hour compound incubation, Cisbio pERK HTRF.

One may read the IC50 as the concentration at which inhibition is half-maximal.

Molecules are shown by their SMILES.

KRas G12D, sequence (P01116 1-169 isoform P01116-2 G12D): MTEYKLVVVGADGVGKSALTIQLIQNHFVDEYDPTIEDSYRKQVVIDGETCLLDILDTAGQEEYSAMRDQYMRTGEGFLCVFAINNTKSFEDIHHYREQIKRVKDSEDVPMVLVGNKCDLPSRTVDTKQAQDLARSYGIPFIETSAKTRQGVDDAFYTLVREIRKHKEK
KRas G12V, sequence (P01116 1-169 isoform P01116-2 G12V): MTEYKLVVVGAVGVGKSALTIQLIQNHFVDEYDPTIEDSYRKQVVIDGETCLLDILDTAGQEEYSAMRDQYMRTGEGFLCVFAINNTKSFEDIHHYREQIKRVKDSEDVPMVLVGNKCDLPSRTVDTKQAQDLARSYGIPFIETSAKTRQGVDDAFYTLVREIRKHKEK
KRas G12S, sequence (P01116 1-169 isoform P01116-2 G12S): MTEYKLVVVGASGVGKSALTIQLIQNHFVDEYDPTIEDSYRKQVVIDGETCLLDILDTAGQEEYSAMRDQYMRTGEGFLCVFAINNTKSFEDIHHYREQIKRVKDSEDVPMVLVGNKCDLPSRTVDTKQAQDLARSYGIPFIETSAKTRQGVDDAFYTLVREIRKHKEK
KRas WT, sequence (P01116 1-169 isoform P01116-2): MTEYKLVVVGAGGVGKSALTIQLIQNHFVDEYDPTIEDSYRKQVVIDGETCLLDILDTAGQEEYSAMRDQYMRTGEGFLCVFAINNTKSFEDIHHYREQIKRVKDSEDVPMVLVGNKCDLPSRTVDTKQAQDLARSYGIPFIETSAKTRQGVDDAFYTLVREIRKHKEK
KRas G12C, sequence (P01116 1-169 isoform P01116-2 G12C): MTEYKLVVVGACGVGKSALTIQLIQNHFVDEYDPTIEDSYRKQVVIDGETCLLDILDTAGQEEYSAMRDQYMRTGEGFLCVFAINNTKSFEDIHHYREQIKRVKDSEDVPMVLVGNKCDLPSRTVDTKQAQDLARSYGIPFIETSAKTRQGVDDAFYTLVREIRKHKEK
KRas G12R, sequence (P01116 1-169 isoform P01116-2 G12R): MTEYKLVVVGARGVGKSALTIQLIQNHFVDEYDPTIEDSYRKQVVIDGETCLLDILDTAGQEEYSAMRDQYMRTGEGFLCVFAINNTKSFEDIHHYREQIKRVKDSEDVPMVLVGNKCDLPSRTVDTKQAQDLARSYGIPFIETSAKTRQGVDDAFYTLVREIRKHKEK

For the compound `C[C@@H]1C[C@@H]1c1c(Cl)cc(O)cc1N1CCc2c(nc(OC[C@@]34CCCN3C[C@H](F)C4)nc2N2CCC[C@]3(C2)NC(=O)NC3=O)C1` (stereo in doubt) [Example 653, (R)-7-(7-(3-chloro-5-hydroxy-2-(cis-2-methylcyclopropyl)phenyl)-2-(((2R,7aS)-2-fluorotetrahydro-1H-pyrrolizin-7a(5H)-yl)methoxy)-5,6,7,8-tetrahydropyrido[3,4-d]pyrimidin-4-yl)-1,3,7-triazaspiro[4.5]decane-2,4-dione], the IC50 is less than 2 nM at KRas WT; less than 2 nM on KRas G12C; less than 2 nM at KRas G12S; 2.4 nM with MKN1 cells (setting [1]); 131 nM in the test on PSN1 cells (3 hr compound incubation); 70 nM with ASPC1 cells. Also, the IC50 with H727 cells is 60 nM; in the test on A549 cells, 17 nM; in the test on H460 cells it was 12 nM; in the test on HCT116 cells, 28 nM; in the test with H358 cells, 6 nM; on KRas G12D, less than 2 nM. The IC50 at KRas G12V was less than 2 nM.

Take `C[C@@H]1C[C@@H]1c1c(Cl)cc(O)cc1N1CCc2c(nc(OC[C@@]34CCCN3C[C@H](F)C4)nc2N2CCCn3nc(C(=O)N(C)C)cc3C2)C1` (stereo in doubt) [Example 656, 5-(7-(3-chloro-5-hydroxy-2-(cis-2-methylcyclopropyl)phenyl)-2-(((2R,7aS)-2-fluorotetrahydro-1H-pyrrolizin-7a(5H)-yl)methoxy)-5,6,7,8-tetrahydropyrido[3,4-d]pyrimidin-4-yl)-N,N-dimethyl-5,6,7,8-tetrahydro-4H-pyrazolo[1,5-a][1,4]diazepine-2-carboxamide]: the half-inhibitory concentration (IC50) on KRas WT is 5 nM; at KRas G12C it was 2 nM; at KRas G12S, 2 nM; in the test with MKN1 cells (setting [1]), 4.5 nM; with PSN1 cells (3 hr compound incubation) it was greater than 10000 nM; in the test on ASPC1 cells, 82 nM. Besides, the IC50 in the test with H727 cells is 100 nM; in the test with A549 cells, 294 nM; in the test on H460 cells it was 307 nM; in the test with HCT116 cells it was 1220 nM; in the test with H358 cells it was 54 nM; at KRas G12D it was less than 2 nM. For the same compound, the IC50 on KRas G12V was less than 2 nM.

Turning to `CCc1c(F)ccc2cc(O)cc(N3CCc4c(nc(OCC56CCCN5C/C(=C\F)C6)nc4N4CCC[C@@](C)(O)C4)C3)c12` (stereo partly drawn) [Example 574, (3R)-1-(7-(8-ethyl-7-fluoro-3-hydroxynaphthalen-1-yl)-2-(((Z)-2-(fluoromethylene)tetrahydro-1H-pyrrolizin-7a(5H)-yl)methoxy)-5,6,7,8-tetrahydropyrido[3,4-d]pyrimidin-4-yl)-3-methylpiperidin-3-ol], the IC50 on KRas WT was less than 2 nM; on KRas G12C it was less than 2 nM; at KRas G12S, less than 2 nM; with MKN1 cells (setting [2]) it was 0.4 nM; with PSN1 cells (setting [3]), 442 nM; in the test with ASPC1 cells (Cisbio pERK HTRF), 13 nM. Besides, the IC50 is 25 nM in the test with H727 cells (Cisbio pERK HTRF); 16 nM in the test on A549 cells (Cisbio pERK HTRF); 12 nM in the test on H460 cells (Cisbio pERK HTRF); 18 nM in the test on HCT116 cells (Cisbio pERK HTRF); 5 nM in the test on H358 cells (Cisbio pERK HTRF); less than 2 nM at KRas G12D. Further, on KRas G12V, the IC50 was less than 2 nM.

As for `CCc1c(F)ccc2cc(O)cc(N3CCc4c(nc(OCC56CCCN5C/C(=C\F)C6)nc4N4C[C@@H]5C[C@H](C4)[C@H](O)C5)C3)c12` (stereo partly drawn) [Example 576, (1R,5R,6R)-3-(7-(8-ethyl-7-fluoro-3-hydroxynaphthalen-1-yl)-2-(((Z)-2-(fluoromethylene)tetrahydro-1H-pyrrolizin-7a(5H)-yl)methoxy)-5,6,7,8-tetrahydropyrido[3,4-d]pyrimidin-4-yl)-3-azabicyclo[3.2.1]octan-6-ol], the IC50 on KRas WT is 3 nM; at KRas G12C, 3 nM; on KRas G12S, less than 2 nM; with MKN1 cells (setting [2]) it was 5.8 nM; in the test on PSN1 cells (setting [3]), 2760 nM; in the test with ASPC1 cells (Cisbio pERK HTRF) it was 88 nM. For the same compound, the IC50 worked out at 57 nM in the test with H727 cells (Cisbio pERK HTRF); 61 nM with A549 cells (Cisbio pERK HTRF); 57 nM in the test on H460 cells (Cisbio pERK HTRF); 137 nM with HCT116 cells (Cisbio pERK HTRF); 49 nM in the test on H358 cells (Cisbio pERK HTRF); 4 nM on KRas G12D. Further, at KRas G12V, the IC50 was less than 2 nM.

For the compound `CCc1c(F)ccc2cc(O)cc(N3CCc4c(nc(OCC56CCCN5C/C(=C\F)C6)nc4N4CCC[C@]5(C4)NC(=O)NC5=O)C3)c12` (stereo partly drawn) [Example 577, (5R)-7-(7-(8-ethyl-7-fluoro-3-hydroxynaphthalen-1-yl)-2-(((Z)-2-(fluoromethylene)tetrahydro-1H-pyrrolizin-7a(5H)-yl)methoxy)-5,6,7,8-tetrahydropyrido[3,4-d]pyrimidin-4-yl)-1,3,7-triazaspiro[4.5]decane-2,4-dione], the IC50 on KRas WT is less than 2 nM; at KRas G12C, less than 2 nM; at KRas G12S it was less than 2 nM; in the test on MKN1 cells (setting [2]) it was 0.1 nM; in the test on PSN1 cells (setting [3]), 7 nM; in the test on ASPC1 cells (Cisbio pERK HTRF) it was 2 nM. Also, the IC50 in the test with H727 cells (Cisbio pERK HTRF) is 6 nM; with A549 cells (Cisbio pERK HTRF) it was 1 nM; with H460 cells (Cisbio pERK HTRF) it was 1 nM; with HCT116 cells (Cisbio pERK HTRF) it was 2 nM; in the test on H358 cells (Cisbio pERK HTRF) it was 1 nM; on KRas G12D, less than 2 nM. For the same compound, on KRas G12V, the IC50 is less than 2 nM.

On to `CCc1c(F)ccc2cc(O)cc(N3CCc4c(nc(OCC56CCCN5C/C(=C\F)C6)nc4N4CCCn5nc(C(=O)N(C)C)cc5C4)C3)c12` (centres unmarked) [Example 578, (Z)-5-(7-(8-ethyl-7-fluoro-3-hydroxynaphthalen-1-yl)-2-((2-(fluoromethylene)tetrahydro-1H-pyrrolizin-7a(5H)-yl)methoxy)-5,6,7,8-tetrahydropyrido[3,4-d]pyrimidin-4-yl)-N,N-dimethyl-5,6,7,8-tetrahydro-4H-pyrazolo[1,5-a][1,4]diazepine-2-carboxamide], for which the IC50 on KRas WT was less than 2 nM; at KRas G12C, less than 2 nM; at KRas G12S it was less than 2 nM; in the test on MKN1 cells (setting [2]), 0.3 nM; with PSN1 cells (setting [3]), 1040 nM; in the test with ASPC1 cells (Cisbio pERK HTRF), 1 nM. The IC50 in the test with H727 cells (Cisbio pERK HTRF) was 2 nM; in the test with A549 cells (Cisbio pERK HTRF), 4 nM; in the test on H460 cells (Cisbio pERK HTRF), 7 nM; with HCT116 cells (Cisbio pERK HTRF), 36 nM; in the test on H358 cells (Cisbio pERK HTRF) it was 1 nM; on KRas G12D, less than 2 nM. The compound further returned an IC50 on KRas G12V of less than 2 nM.

On to `CCc1c(F)ccc2cc(O)cc(N3CCc4c(nc(OC[C@@]56CCCN5C[C@H](F)C6)nc4N4C[C@H]5CC[C@@H](C4)[C@@H]5C#N)C3)c12` [Example 651, (1R,5S,8S)-3-(7-(8-ethyl-7-fluoro-3-hydroxynaphthalen-1-yl)-2-(((2R,7aS)-2-fluorotetrahydro-1H-pyrrolizin-7a(5H)-yl)methoxy)-5,6,7,8-tetrahydropyrido[3,4-d]pyrimidin-4-yl)-3-azabicyclo[3.2.1]octane-8-carbonitrile], for which the IC50 in the test with MKN1 cells (setting [1]) was 23 nM; with PSN1 cells (3 hr compound incubation), greater than 10000 nM; with ASPC1 cells, 572 nM; in the test on H727 cells it was 84 nM; in the test on A549 cells, 94 nM; in the test on H460 cells, 165 nM. Moreover, the IC50 with HCT116 cells is 516 nM; with H358 cells, 45 nM; at KRas G12D it was 18 nM; on KRas G12R it was less than 2 nM; at KRas G12V, less than 2 nM.
